Experiments:
[1] = Blocker Index (BI), expert graders, isovaleric acid malodorous swatch; parameters: key: BI odor strength 0 (lowest, clean swatch) to 3 (highest)
From the text: (§1) Blocker materials suitable for use in consumer products of the present invention are chosen for their ability to decrease malodor, while not interfering with perception of a fragrance. Material selection is done by assigning two indices to a test sample material from two reference scales in order to rank odor strengths. The two reference scales are the Fragrance Fidelity Index (FFI) scale and the Blocker Index (BI) scale. The FFI ranks the ability of the test sample material to impart a perceivable odor which could cause interference when combined with another fragrance and the BI ranks the ability of the test sample material to reduce malodor perception. The two methods for assigning the indices to a test sample on the FFI and the BI reference scales are given below.
(§2) The first step in the method for assigning a BI to a test sample material on the BI reference scale is to create the BI reference swatches. […] Fabric swatches for this test are white knit polycotton (4 inch×4 inch) swatches from EMC ordered as PC 50/50. The supplier is instructed to strip the swatches first, stripping involves washing twice with a fragrance-free detergent and rinsing three times.
The BI scale contains one clean swatch with no malodor applied. […] These solutions are pipetted to the middle of the swatches. […] After drying for 30 minutes in a vented hood, the swatches are wrapped in aluminum foil to prevent odor contamination to the treated swatch. A clean untreated swatch is also included as the lowest anchor point of reference for malodor strength on the BI scale. The BI reference scale swatches should be used within 0.5 to 12 hours and discarded after 12 hours. The swatches are used as scale anchor points when graders evaluate a test sample(s) and are assigned a Blocker Index (BI) as show in Table 12.
The perfumer/expert grader is asked to rank order swatches according to a scale between 0 and 3.
The reference swatches represent the 0, 1, 2, and 3 BIs on the BI reference scale, Table 12. The expert grader should familiarizes him/herself with the strength of the odor on the BI reference swatches by sniffing each one starting at 0 (the lowest odor strength) and ending at 3 (the highest odor strength). This should be done prior to evaluating the swatch treated with the test material.
To evaluate the BI, the test material is applied to a malodorous swatch to determine how well the test material blocks the malodor. […] After drying the malodorous swatch a known concentration of test material solution, between 1 ppm and 100 ppm is pipetted onto the malodorous swatch. […] It is sometimes necessary to evaluate several levels of the test material between about 1 and about 100 ppm to determine the BI.
At least two perfumers/expert graders are used to assign the BI to the test sample. […] The test sample swatch is assigned a BI at or between numbers on the BI in table.

[2] = Fragrance Fidelity Index (FFI), expert graders, treated fabric swatch against ethyl vanillin reference scale
From the text: as §1
as §2, with “assigning an FFI” for “assigning a BI”, “to the” for “to a”, “test samples” for “test sample material”, “the FFI” for “the BI”
Pipette 13 μL of each of the three solutions into the middle of a clean swatch resulting in about a 1 cm diameter of the solution in the middle of the swatch. This will create a sensory scale of three swatches with three different odor levels based on the concentration of the solution pipetted onto the swatch. After drying for 30 minutes in a vented hood, the swatches are wrapped in aluminum foil to prevent odor contamination to the treated swatch. A clean untreated swatch is also included as the lowest anchor point of reference for odor strength on the FFI scale. The FFI reference scale swatches should be used within 0.5 to 12 hours and discarded after 12 hours. The swatches are used as scale anchor points when graders evaluate a test sample(s) and are assigned a Fragrance Fidelity Index (FFI) as show in Table 7.
The perfumer/expert panel is asked to rank order swatches according to a scale between 0 and 3.
The reference swatches represent the 0, 1, 2, and 3 FFIs on the FFI reference scale, Table 9. The expert grader should familiarize them self with the strength of the odor on the FFI reference swatches by sniffing each one starting at 0 (the lowest odor strength) and ending at 3 (the highest odor strength). This should be done prior to evaluating the test sample material treated swatch.
A clean swatch is treated with 13 μL of a known concentration of a test sample material resulting in an about 1 cm of the solution on the clean swatch. Just like the reference swatches, the test sample material swatch is dried in a vented hood for 30 minutes and then wrapped in aluminum foil to prevent contamination. […]

[3] = test material Conc 10 ppm on isovaleric acid malodorous swatch
[4] = test material Conc 50 ppm on isovaleric acid malodorous swatch

SMILES: O=C1CCC2CCCCC2O1 (stereo not drawn) [3,4,4a,5,6,7,8,8a-octahydrochromen-2-one]
- BI [1, 3]: 2.0
- BI [1, 4]: 2.0

SMILES: CC1CCC2(C(C)C)CC(C)OC2C1 (stereo not drawn) [4,8-dimethyl-1-(methylethyl)-7-oxybiciclo [4.3.0]nonane]
- BI ([1]; Conc 10 ppm): 2.0
- BI ([1]; Conc 50 ppm): 2.2
- FFI ([2]; Conc 50 ppm): 0.3

SMILES: CC(C)(C)C1CCCCC1 [4-tert-butyl cyclohexane]
- BI [1, 3]: 2.0
- BI [1, 4]: 2.0

SMILES: CCC(=O)OC1CC2C3C=CCC3C1C2(C)C (stereo not drawn) [8,8-dimethyl-3a,4,5,6,7,7a-hexahydro-1H-4,7-methanoinden-6-yl propionate]
- BI ([1]; Conc 10 ppm): 1.5
- BI ([1]; Conc 50 ppm): 2.2
- FFI ([2]; Conc 10 ppm): 0
- FFI ([2]; Conc 50 ppm): 0

SMILES: CCCCCCCCCCCCCCCC(=O)OC [Material 109]
- BI [1, 3]: 2.0

SMILES: CCCCCCCCCCCCO [Material 174]
- BI [1, 4]: 2.3

SMILES: CC(=O)OCCCCCCC(C)C [Material 204]
- BI [1, 3]: 2.0
- BI [1, 4]: 2.7

SMILES: CC1(C)CCc2ccc(CCC=O)cc21 [Material 261, 3-(3,3-dimethyl-2,3-dihydro-1H-inden-5-yl)propanal]
- BI ([1]; Conc 10 ppm): 1.5
- BI ([1]; Conc 50 ppm): 2.7
- FFI ([2]; Conc 50 ppm): 0.5

SMILES: CC1(C)CCc2ccc(CCC=O)cc21 [Material 261]
- BI [1, 3]: 1.8
- BI [1, 4]: 1.3

SMILES: CC(=O)OC1CC2CC1C1CC=CC21 (stereo not drawn) [Material 281]
- BI [1, 3]: 2.0
- BI [1, 4]: 2.0

SMILES: CCCCCCCCCCCC(=O)OCC [Material 391]
- BI [1, 4]: 2.2

SMILES: C=CC(C)=CCC=C(C)C [Material 524]
- BI [1, 4]: 2.8

SMILES: CCC(O)COC1CCCCC1C(C)(C)C (stereo not drawn) [Material 677]
- BI [1, 3]: 2.3
- BI [1, 4]: 2.0

SMILES: CC(CCO)CCc1ccccc1 (stereo not drawn) [Material 962]
- BI [1, 3]: 2.3
- BI [1, 4]: 1.7

SMILES: CCOC(=O)OC1C(C)CCC(C)C1C (stereo not drawn) [Material 1005]
- BI [1, 4]: 2.6

SMILES: COC(=O)OC1CC/C=C\CCC1 (stereo not drawn) [Material 1139]
- BI [1, 3]: 2.0
- BI [1, 4]: 2.7

SMILES: C=C1CCC2OC2(C)CCC2C1CC2(C)C (stereo not drawn) [Material 1148]
- BI [1, 4]: 2.3

SMILES: CC1(C)C2CCC3(C2)C1C(=O)CCC3(C)C (stereo not drawn) [Material 1149]
- BI [1, 3]: 1.5
- BI [1, 4]: 2.3

SMILES: CCCCCCCCCCCO [Undecanol]
- BI [1, 4]: 2.3

SMILES: CC(C)CC(=O)O [isovaleric acid, reference compound]
- BI reference swatch grade, Ave ([1]; 2 μL 0.08% isovaleric acid, graders 1-5 (Table 10)): 1.0
- BI reference swatch grade, single expert grader ([1]; stripped swatch with 2 μL 0.08% isovaleric acid): 1.0
- BI reference swatch grade, single expert grader ([1]; stripped swatch with 5 μL 0.08% isovaleric acid): 2.5
- BI reference swatch grade, single expert grader ([1]; stripped swatch with 20 μL 0.08% isovaleric acid): 2.5
